Measured values from US20060154896A1, “Phosphorylated dextrans” (priority 2002, published 2006).

Assays:
mouse spleen cells = experiment: Blastogenic activity on mouse spleen cells ([3H]-thymidine uptake, Stimulation Index); type: cell-based
Description: In the preparation of immune cells, specific pathogen free (SPF) BALB/c mice (Japan SLC, Shizuoka, Japan) were used for examination. Five-week old male mice were purchased, and allowed to freely consume distilled water and MR breeder (Nihon Nosan Kogyo (Nosan Co.)), which is experimental feed for mice and rats. Six- to ten-week-old mice were used for the experiments.
BALB/c mice were anesthetized with ether, and then sacrificed by exsanguination. Their spleens were excised and washed with phosphate buffer (PBS-4×S.P; ph 7.3) containing streptomycin and penicillin ([…] and 400 U/ml, respectively) to remove adipose tissue and such. The spleens were well dispersed in gauze, and spleen cells were filtered through the gauze into PBS to prepare a cell suspension. This cell suspension was centrifuged (at 300×g for five minutes at 4° C.). After discarding the supernatant, the cells were re-suspended in RPMI-1640 medium (SIGMA). The suspension was filtered through a steel mesh to remove aggregated cells, and centrifuged again (five minutes at 300×g and 4° C.). After discarding the supernatant, the cells were finally re-suspended in RPMI-1640 containing 2% fetal calf serum (FCS: Biocell Lab., Inc., CA, US). The viable cell count was determined using a trypan blue staining method, and this suspension was used as the spleen cell suspension in the experiments.
The cell suspension was transferred into each well of a 96-well microplate (SUMITOMO BAKELITE CO., LTD. Tokyo, Japan) to give 2×10^5 cells per well. The dextran and five types of phosphorylated dextrans (molecular weights of about 10,000, 40,000, 160,000, 510,000, and 2,000,000) prepared in Example 1 were respectively added to the wells to a concentration of 100 μg/ml. The cells were then cultured in RPMI-1640 (2% FCS) under 5% CO2 at 37° C. for 48 hours. As positive control samples, lipopolysaccharide (LPS: B-cell mitogen, E. coli 0111: B4, SIGMA) or concanavalin A (ConA: T-cell mitogen, SIGMA) were added at a final concentration of 20 μg/ml and 2 μg/ml, respectively. […] TdR incorporated into the lymphocytes was determined using a liquid scintillation counter (LS1801; Beckman Coulter, Tokyo).
The blastogenic activities on lymphocytes were evaluated by calculating Stimulation Indexes (S.I.) from the [^3H] […]
The blastogenic activities of phosphorylated dextrans on mouse spleen cells were measured as described in Example 5, except that phosphorylated dextrans were added at concentrations of 100 ng/ml, 1 μg/ml, 10 μg/ml, 100 μg/ml, or 200 μg/ml, the cells were incubated in RPMI-1640 medium (2% FCS) under 5% CO2 at 37° C. for 48 hours, and methyl-[^3H]-thymidine uptakes were measured. Blastogenic activity was estimated by calculating S.I. values from the radioactivity, compared with a control. […]

B cells = experiment: Blastogenic activity on separated B cells (MACS CD45R adsorbed fraction); type: cell-based, mouse; conditions: B cell fraction, 48 hours, FIG. 6
Method: (§1) The mouse spleen cell suspension prepared in Example 4 was washed by centrifugation (at 2,500 rpm for five minutes at 4° C.) with a buffer for cell separation (0.5% BSA, 2 mM EDTA/-PBS). 3×10^7 cells were incubated at 4° C. for 15 minutes with 50 μl of a 20-times diluted biotinylated anti-mouse CD45R antibody (CLTAG Lab, Burlingame, Calif.). The cells were washed by centrifugation with the cell separation buffer (five minutes at 2,500 rpm and 4° C.), and the supernatant was then discarded. 30 μl of ten-fold diluted streptavidin microbeads (Miltenyi Biotec GmbH, Germany) was added to the cells, and the mixture was incubated at 4° C. for 15 minutes. The cells were washed by centrifugation with the cell separation buffer (five minutes at 2,500 rpm and 4° C.), re-suspended in the same buffer, and the suspension was then filtered through a nylon mesh to remove aggregated cells. […]
(§2) The cells thus obtained were collected by centrifugation and re-suspended in RPMI-1640 containing 10% FCS. The blastogenic activity was then determined using the method described above, except that the stimulation by phosphorylated NPS was carried out at a concentration of 100 μg/ml, and the cells were incubated for 48 hours.

T cells = experiment: Blastogenic activity on separated T cells (MACS flow-through fraction); type: cell-based, mouse; conditions: T cell fraction, 48 hours, FIG. 6
Method: as §1, §2

| Substance | blastogenic activity, S.I. (positive control) (mouse spleen cells; LPS 20 μg/ml, 48 hours, FIG. 3) | blastogenic activity, S.I. (positive control) (mouse spleen cells; LPS, FIG. 4 experiment) | activation of B cells (positive control) (B cells) | blastogenic activity, S.I. (positive control) (mouse spleen cells; ConA 2 μg/ml, 48 hours, FIG. 3) | blastogenic activity, S.I. (positive control) (mouse spleen cells; ConA, FIG. 4 experiment) | activation of T cells (positive control) (T cells) |
| --- | --- | --- | --- | --- | --- | --- |
| Lipopolysaccharide | 89.3 | 79.8 | specifically activated | – | – | – |
| concanavalin A | – | – | – | 189.4 | 247.8 | specifically activated |
